Our source for the Activity and IC50 values is ChEMBL document CHEMBL1141293, “Cassane furanoditerpenoids from the seed kernels of Caesalpinia bonduc from Thailand” (J Nat Prod, 2007).

In assay [1] the test system is Plasmodium falciparum. In words: Antimalarial activity against multidrug-resistant Plasmodium falciparum K1 at 10 uM by microculture radioisotope assay. Format: functional, organism-based.
For another assay, the system named is BT-474. In words: Cytotoxicity against human BT474 cells at 10 ug/ml by MTT assay. Format: functional, cell-based.
The next assay has as its system CHAGO. In words: Cytotoxicity against human CHAGO cells at 10 ug/ml by MTT assay. The assay is classed as functional, cell-based.
A further assay relates to HepG2. Put plainly: Cytotoxicity against human HepG2 cells at 10 ug/ml by MTT assay. The assay is classed as functional, cell-based.
For the next assay, the system named is KATO3. Put plainly: Cytotoxicity against human KATO3 cells at 10 ug/ml by MTT assay. Format: functional, cell-based.
In the next assay the test system is SW-620. In words: Cytotoxicity against human SW620 cells at 10 ug/ml by MTT assay. The assay is classed as functional, cell-based.
Assay [2] concerns Plasmodium falciparum. In words: Antimalarial activity against multidrug-resistant Plasmodium falciparum K1 by microculture radioisotope assay. Format: functional, organism-based.

Active and inactive are the calls of the source. No cut-off for these calls is given here.

In the case of `CC(=O)O[C@@H]1[C@@H]2[C@H](Cc3occc3[C@@]2(C)O)[C@@]2(C)C(=O)CCC(C)(C)[C@]2(O)[C@H]1OC(C)=O`, the outcome in the assay with Plasmodium falciparum [1] was inactive. Moreover, the Activity result with BT-474, with CHAGO, with HepG2, with KATO3 and in the assay on SW-620 was “Not toxic” each time.

In the case of `C=C1c2ccoc2C[C@H]2[C@H]1[C@@H](OC(C)=O)[C@H](O)[C@@]1(O)C(C)(C)CCC(=O)[C@]21C` [BONDUCELLPIN F], the IC50 in the assay with Plasmodium falciparum [2] worked out at 5800 nM. The Activity result in the assay on BT-474, in the assay on CHAGO, with HepG2, in the assay on KATO3 and in the assay with SW-620 was “Not toxic” throughout.

For the molecule `C=C1c2ccoc2C[C@H]2[C@H]1[C@@H](O)[C@H](OC(C)=O)[C@@]1(O)C(C)(C)CC[C@H](OC(C)=O)[C@]21C` [BONDUCELLPIN G], in the assay on Plasmodium falciparum [2], the IC50 is 3800 nM. The Activity result in the assay with BT-474, in the assay on CHAGO, with HepG2, in the assay with KATO3 and with SW-620 was “Not toxic” each time.

On to `C[C@H]1[C@@H](O)O[C@@H]2O[C@@]3(C)CC[C@H]4[C@H](C)CC[C@@H]1[C@@]24OO3` [ARTENIMOL], for which, in the assay with Plasmodium falciparum [2], the IC50 came to 4 nM.

Molecule `COC(=O)[C@@H]1c2ccoc2C[C@H]2[C@H]1[C@@H](OC(C)=O)[C@H](O)[C@@]1(O)C(C)(C)CCC(=O)[C@]21C` [BONDUCELLPIN E] had an IC50 in the assay with Plasmodium falciparum [2] of 1600 nM. In addition, the Activity entry in the assay on BT-474, in the assay on CHAGO, with HepG2, in the assay with KATO3 and in the assay on SW-620 was “Not toxic” in each case.
